Experimental data reported in patent publication US20260365628A1, “SUBSTITUTED 3,4-DIHYDROQUINOLINONE INHIBITORS OF TSHR” (Septerna, Inc., priority 2022, published 2026).

These compounds were tested against T1, hTSHR (Homo sapiens, UniProt P16473) (assay: hTSHR TR-FRET cAMP Assay (inhibition of M22-stimulated cAMP production)). Conditions: Expi293F Inducible cells stably expressing hTSHR; cAMP HTRF; stimulated with EC80 of anti-TSHR antibody M22; 15 min compound preincubation, 30 min at 37° C.; read-out: Activity (IC50 bins).
T1 construct: expressed in transfected cells
Type: cell-based
How it was run: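 Readout was a cAMP HTRF ratio of 655/620 nm after lysis, scaled between the EC80 M22 signal (0% inhibition) and no-agonist vehicle (100%). Frozen induced Expi293F-hTSHR cells saw test compounds (0.5% DMSO) for 15 min at 37 °C before 30 min of M22 stimulation at EC80.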

T1 sequence (P16473 21-764): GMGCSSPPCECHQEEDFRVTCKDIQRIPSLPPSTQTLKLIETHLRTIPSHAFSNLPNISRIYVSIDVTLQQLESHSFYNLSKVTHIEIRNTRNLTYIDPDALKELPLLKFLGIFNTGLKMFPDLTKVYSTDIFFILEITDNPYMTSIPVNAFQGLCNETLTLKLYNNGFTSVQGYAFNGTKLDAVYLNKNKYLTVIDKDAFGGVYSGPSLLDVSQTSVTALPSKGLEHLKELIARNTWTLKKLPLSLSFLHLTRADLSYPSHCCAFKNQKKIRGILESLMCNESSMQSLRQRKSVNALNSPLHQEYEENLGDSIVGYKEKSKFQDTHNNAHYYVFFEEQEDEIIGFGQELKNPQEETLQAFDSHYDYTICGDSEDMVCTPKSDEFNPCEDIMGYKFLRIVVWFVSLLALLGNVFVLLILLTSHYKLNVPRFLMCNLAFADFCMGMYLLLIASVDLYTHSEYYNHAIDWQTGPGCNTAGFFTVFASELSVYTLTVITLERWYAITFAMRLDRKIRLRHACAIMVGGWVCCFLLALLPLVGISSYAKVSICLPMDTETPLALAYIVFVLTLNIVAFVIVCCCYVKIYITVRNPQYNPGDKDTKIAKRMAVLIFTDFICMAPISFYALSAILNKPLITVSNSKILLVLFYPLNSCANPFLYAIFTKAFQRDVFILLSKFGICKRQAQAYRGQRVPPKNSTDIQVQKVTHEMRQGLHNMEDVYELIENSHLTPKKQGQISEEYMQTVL

First: COc1cccc([C@H](C)N2C(=O)[C@@H](C)Oc3cc(NC(=O)NC(C)(C)C)ccc32)c1 [Example 187, 1-(tert-butyl)-3-((R)-4-((S)-1-(3-methoxyphenyl)ethyl)-2-methyl-3-oxo-3,4-dihydro-2H-benzo[b][1,4]oxazin-7-yl)urea]
Second: C[C@H]1Oc2cc(NC(=O)NC(C)(C)C)ccc2N([C@@H](C)c2ccccc2Cl)C1=O [Example 189, 1-(tert-butyl)-3-((R)-4-((S)-1-(2-chlorophenyl)ethyl)-2-methyl-3-oxo-3,4-dihydro-2H-benzo[b][1,4]oxazin-7-yl)urea]
The IC50 of the first is higher: 100 to 1000 nM for the first, less than 100 nM for the second. The second is the more potent here.

First: C[C@H]1Oc2cc(NC(=O)NC(C)(C)C)ccc2N([C@@H](C)c2cc(F)ccc2F)C1=O [Example 188, 1-(tert-butyl)-3-((R)-4-((S)-1-(2,5-difluorophenyl)ethyl)-2-methyl-3-oxo-3,4-dihydro-2H-benzo[b][1,4]oxazin-7-yl)urea]
Second: C[C@H]1Oc2cc(NC(=O)NC(C)(C)C)ccc2N([C@@H](C)c2cc(Cl)ccc2Cl)C1=O [Example 190, 1-(tert-butyl)-3-((R)-4-((S)-1-(2,5-dichlorophenyl)ethyl)-2-methyl-3-oxo-3,4-dihydro-2H-benzo[b][1,4]oxazin-7-yl)urea]
The IC50 of the first is lower: less than 100 nM for the first, 100 to 1000 nM for the second.

CC1(NC(=O)Nc2ccc3c(c2)ncc(=O)n3Cc2ccccc2)CCC1 [Example 191, 1-(1-benzyl-2-oxo-1,2-dihydroquinoxalin-6-yl)-3-(1-methylcyclobutyl)urea] and CC1(NC(=O)Nc2ccc3c(c2)ncc(=O)n3Cc2ccccc2)CCCC1 [Example 193, 1-(1-benzyl-2-oxo-1,2-dihydroquinoxalin-6-yl)-3-(1-methylcyclopentyl) urea] fall in the same range of IC50: 100 to 1000 nM for the first, 100 to 1000 nM for the second.

CC1(C)CN(C(=O)Nc2ccc3c(c2)ncc(=O)n3Cc2ccccc2)C1 [Example 192, N-(1-benzyl-2-oxo-1,2-dihydroquinoxalin-6-yl)-3,3-dimethylazetidine-1-carboxamide] and CC1(C)CCN(C(=O)Nc2ccc3c(c2)ncc(=O)n3Cc2ccccc2)C1 [Example 194, N-(1-benzyl-2-oxo-1,2-dihydroquinoxalin-6-yl)-3,3-dimethylpyrrolidine-1-carboxamide] cannot be ordered by IC50: greater than 1000 nM for the first, greater than 1000 nM for the second.

First: CC(C)(CF)NC(=O)Nc1ccc2c(c1)ncc(=O)n2Cc1ccccc1 [Example 195, 1-(1-benzyl-2-oxo-1,2-dihydroquinoxalin-6-yl)-3-(1-fluoro-2-methylpropan-2-yl)urea]
Second: CC(C)(NC(=O)Nc1ccc2c(c1)ncc(=O)n2Cc1ccccc1)C(F)F [Example 199, 1-(1-benzyl-2-oxo-1,2-dihydroquinoxalin-6-yl)-3-(1,1-difluoro-2-methylpropan-2-yl)urea]
The IC50 of the first is higher: greater than 1000 nM for the first, 100 to 1000 nM for the second. The second is the more potent here.

O=C(Nc1ccc2c(c1)ncc(=O)n2Cc1ccccc1)NC1CCCC1 [Example 196, 1-(1-benzyl-2-oxo-1,2-dihydroquinoxalin-6-yl)-3-cyclopentylurea] and O=C(Nc1ccc2c(c1)ncc(=O)n2Cc1ccccc1)C1CCCC1 [Example 197, N-(1-benzyl-2-oxo-1,2 dihydroquinoxalin-6-yl)cyclopentanecar-boxamide] cannot be ordered by IC50: greater than 1000 nM for the first, greater than 1000 nM for the second.

CC(C)(NC(=O)Nc1ccc2c(c1)ncc(=O)n2Cc1ccccc1)C(F)(F)F [Example 198, 1-(1-benzyl-2-oxo-1,2-dihydroquinoxalin-6-yl)-3-(1,1,1-trifluoro-2-methylpropan-2-yl)urea] and C[C@@H](c1cccc(OC(F)(F)F)c1)n1c(=O)cnc2cc(NC(=O)NC(C)(C)C(F)(F)F)ccc21 [Example 208, (S)-1-(2-oxo-1-(1-(3-(trifluoromethoxy)phenyl)ethyl)-1,2-dihydroquinoxalin-6-yl)-3-(1,1,1-trifluoro-2-methylpropan-2-yl)urea] fall in the same range of IC50: 100 to 1000 nM for the first, 100 to 1000 nM for the second.

Compared with C[C@@H](c1cccc(OC(F)(F)F)c1)n1c(=O)cnc2cc(NC(=O)NC3(C)CCC3)ccc21 [Example 200, (S)-1-(1-methylcyclobutyl)-3-(2-oxo-1-(1-(3-(trifluoromethoxy)phenyl)ethyl)-1,2-dihydroquinoxalin-6-yl)urea], C[C@@H](c1cccc(OC(F)(F)F)c1)n1c(=O)cnc2cc(NC(=O)NC3(C)CCCC3)ccc21 [Example 203, (S)-1-(1-methylcyclopentyl)-3-(2-oxo-1-(1-(3-(trifluoromethoxy)phenyl)ethyl)-1,2-dihydroquinoxalin-6-yl)urea] is higher in IC50: less than 100 nM for the first, 100 to 1000 nM for the second. The first is the more potent here.

C[C@@H](c1cccc(OC(F)(F)F)c1)n1c(=O)cnc2cc(NC(=O)NCC(C)(C)C)ccc21 [Example 201, (S)-1-neopentyl-3-(2-oxo-1-(1-(3-(trifluoromethoxy)phenyl)ethyl)-1,2-dihydroquinoxalin-6-yl)urea] and CC(C)CCNC(=O)Nc1ccc2c(c1)ncc(=O)n2[C@@H](C)c1cccc(OC(F)(F)F)c1 [Example 207, (S)-1-isopentyl-3-(2-oxo-1-(1-(3-(trifluoromethoxy)phenyl)ethyl)-1,2-dihydroquinoxalin-6-yl)urea] fall in the same range of IC50: 100 to 1000 nM for the first, 100 to 1000 nM for the second.

First: C[C@@H](c1cccc(OC(F)(F)F)c1)n1c(=O)cnc2cc(NC(=O)CCc3cccc(C(F)(F)F)c3)ccc21 [Example 202, (S)-N-(2-oxo-1-(1-(3-(trifluoromethoxy)phenyl)ethyl)-1,2-dihydroquinoxalin-6-yl)-3-(3-(trifluoromethyl)phenyl) propanamide]
Second: C[C@@H](c1cccc(OC(F)(F)F)c1)n1c(=O)cnc2cc(NC(=O)NC3(C(F)(F)F)CCC3)ccc21 [Example 214, (S)-1-(2-oxo-1-(1-(3-(trifluoromethoxy)phenyl)ethyl)-1,2-dihydroquinoxalin-6-yl)-3-(1-(trifluoromethyl)cyclobutyl)urea]
The IC50 of the first is lower: less than 100 nM for the first, 100 to 1000 nM for the second.

C[C@@H](c1cccc(OC(F)(F)F)c1)n1c(=O)cnc2cc(NC(=O)NC3CC(F)(F)C3)ccc21 [Example 204, (S)-1-(3,3-difluorocyclobutyl)-3-(2-oxo-1-(1-(3-(trifluoromethoxy)phenyl)ethyl)-1,2-dihydroquinoxalin-6-yl)urea] and C[C@@H](c1cccc(OC(F)(F)F)c1)n1c(=O)cnc2cc(NC(=O)NC3CCC(F)(F)CC3)ccc21 [Example 216] fall in the same range of IC50: 100 to 1000 nM for the first, 100 to 1000 nM for the second.

C[C@@H](c1cccc(OC(F)(F)F)c1)n1c(=O)cnc2cc(NC(=O)NC3CCC3)ccc21 [Example 205, (S)-1-cyclobutyl-3-(2-oxo-1-(1-(3-(trifluoromethoxy)phenyl)ethyl)-1,2-dihydroquinoxalin-6-yl)urea] and C[C@@H](c1cccc(OC(F)(F)F)c1)n1c(=O)cnc2cc(NC(=O)NC34CC(C3)C4)ccc21 [Example 206, (S)-1-(bicycl[1.1.1]pentan-1-yl)-3-(2-oxo-1-(1-(3-(trifluoromethoxy)phenyl)ethyl)-1,2-dihydroquinoxalin-6-yl)urea] fall in the same range of IC50: 100 to 1000 nM for the first, 100 to 1000 nM for the second.

Cc1c(NC(=O)NC(C)(C)C)ccc2c1ncc(=O)n2[C@@H](C)c1cccc(OC(F)(F)F)c1 [Example 209, (S)-1-(tert-butyl)-3-(5-methyl-2-oxo-1-(1-(3-(trifluoromethoxy)phenyl)ethyl)-1,2-dihydroquinoxalin-6-yl)urea] and C[C@@H](c1cccc(OC(F)(F)F)c1)n1c(=O)cnc2c(Cl)c(NC(=O)NC(C)(C)C)ccc21 [Example 218, (S)-1-(tert-butyl)-3-(5-chloro-2-oxo-1-(1-(3-(trifluoromethoxy)phenyl)ethyl)-1,2-dihydroquinoxalin-6-yl)urea] fall in the same range of IC50: 100 to 1000 nM for the first, 100 to 1000 nM for the second.

Compared with C[C@@H](c1cccc(OC(F)(F)F)c1)n1c(=O)cnc2cc(NC(=O)NC3(C)CCCCC3)ccc21 [Example 210, (S)-1-(1-methylcyclohexyl)-3-(2-oxo-1-(1-(3-(trifluoromethoxy)phenyl)ethyl)-1,2-dihydroquinoxalin-6-yl)urea], C[C@@H](c1cccc(OC(F)(F)F)c1)n1c(=O)cnc2cc(NC(=O)NC3(C)COC3)ccc21 [Example 212] is higher in IC50: less than 100 nM for the first, greater than 1000 nM for the second.

C[C@@H](c1cccc(OC(F)(F)F)c1)n1c(=O)cnc2cc(NC(=O)NC34CCC(CC3)C4)ccc21 [Example 211, (S)-1-(bicyclo[2.2.1]heptan-1-yl)-3-(2-oxo-1-(1-(3-(trifluoromethoxy)phenyl)ethyl)-1,2-di-hydroquinoxalin-6-yl)urea] and C[C@@H](c1cccc(OC(F)(F)F)c1)n1c(=O)cnc2cc(NC(=O)NC34CCC(C3)C4)ccc21 [Example 213, (S)-1-(bicyclo[2.1.1]hexan-1-yl)-3-(2-oxo-1-(1-(3-(trifluoromethoxy)phenyl)ethyl)-1,2-dihydroquinoxalin-6-yl)urea] cannot be ordered by IC50: less than 100 nM for the first, less than 100 nM for the second.

COCC1(NC(=O)Nc2ccc3c(c2)ncc(=O)n3[C@@H](C)c2cccc(OC(F)(F)F)c2)CCC1 [Example 215, (S)-1-(1-(methoxymethyl)cyclobutyl)-3-(2-oxo-1-(1-(3-(tri-fluoromethoxy)phenyl)ethyl)-1,2-dihydroquinoxalin-6-yl)urea] and C[C@@H](c1cccc(OC(F)(F)F)c1)n1c(=O)cnc2cc(NC(=O)NC3(C(F)(F)F)CCCC3)ccc21 [Example 217] fall in the same range of IC50: 100 to 1000 nM for the first, 100 to 1000 nM for the second.

C[C@@H](c1cccc(OC(F)(F)F)c1)n1c(=O)cnc2cc(NC(=O)NC3(C)CC(F)(F)C3)ccc21 [Example 221, (S)-1-(3,3-difluoro-1-methylcyclobuty 1)-3-(2-oxo-1-(1-(3-(trifluoromethoxy)phenyl)ethyl)-1,2-dihydroquinoxalin-6-yl)urea] and C[C@@H](c1cccc(OC(F)(F)F)c1)n1c(=O)cnc2cc(NC(=O)NC3(C(F)(F)F)COC3)ccc21 [Example 222] fall in the same range of IC50: 100 to 1000 nM for the first, 100 to 1000 nM for the second.

Compound C[C@@H](c1cccc(OC(F)(F)F)c1)n1c(=O)cnc2cc(NC(=O)N[C@H]3C[C@H](C(F)(F)F)C3)ccc21 [Example 223, 1-(2-oxo-1-((S)-1-(3-(trifluoromethoxy)phenyl)ethyl)-1,2-dihydroquinoxalin-6-yl)-3-((1r,3R)-3-(trifluoromethyl)cyclobutyl)urea] has an IC50 of 100 to 1000 nM.
